Measured values from patent publication US10781188B2, “Contrast agents” (BRACCO IMAGING S.P.A., priority 2015, dated 2020).

Assays:
[1] = Relaxivity r1p in physiologic solution (saline), 37° C.; assay type: physicochemical; details: for r1p at 0.47 T 37° C., saline: 0.47 T (20 MHz); for r1p at 1.41 T 37° C., saline: 1.41 T (60 MHz)
Method: (§1) The relaxometric properties of some representative complex compounds according to the invention have been determined at different magnetic field strengths, e.g. including 0.47 and 1.41 T, at 37° C. and in different media (physiologic solution and human plasma) and compared with relaxivity values measured, at the same conditions, for some Gd-Complex of the market having an analogous cyclic coordination cage.
(§2) The longitudinal water proton relaxation rate (R1=1/T1) was measured at 0.47 T with a Minispec MQ-20 spectrometer (Bruker Biospin, Germany) operating at a proton Larmor frequency of 20 MHz; MR experiments at 1.41 T were performed using a Minispec MQ-60 spectrometer (Bruker Biospin, Germany) operating at a proton Larmor frequency of 60 MHz.
(§3) All test articles were used as supplied and diluted in the selected medium (physiologic solution or human plasma) by weighting the required amount of paramagnetic chelated complex to get a 5 or 10 mM starting solution.
(§4) Five different concentration samples (0.1, 0.25, 0.5, 0.75 and 1 mM) for each medium have been prepared by further dilution of the starting 5 or 10 mM solution.
(§5) Relaxivity measurements were performed at 0.47 T and 1.41 T at a preset temperature sample of 37° C., kept constant by means of a thermostatic bath connected to the sample holder of the spectrometer. The five sample solutions have been preliminary pre-heated at 37° C. in an external thermostatic bath and then left 10 minutes inside the internal bath to assure the stabilization of the temperature. Longitudinal relaxation time T1 was measured by means of a standard inversion recovery sequence, where the inversion time (TI) was varied from 10 ms to at least 5 times T1 in 15 steps. Statistical analysis (mono-exponential fitting for T1 measurement, linear fitting for the evaluation of longitudinal relaxivity) was performed by Mathematica® (Wolfram, USA). Errors on the estimated parameters were evaluated by the fitting procedure.

[2] = Relaxivity r1p in human plasma, 37° C.; assay type: physicochemical; details: for r1p at 0.47 T 37° C., human plasma: 0.47 T (20 MHz); for r1p at 1.41 T 37° C., human plasma: 1.41 T (60 MHz)
Method: as §1, §2, §3, §4, §5

Structure (SMILES) | r1p at 0.47 T 37° C., saline [1] [mM⁻¹ s⁻¹] | r1p at 1.41 T 37° C., saline [1] [mM⁻¹ s⁻¹] | r1p at 0.47 T 37° C., human plasma [2] [mM⁻¹ s⁻¹] | r1p at 1.41 T 37° C., human plasma [2] [mM⁻¹ s⁻¹]
O=C(O)CN1CCN(CC(=O)O)CCN(CC(O)CNCP(=O)(O)O)CCN(CC(=O)O)CC1 (centres unmarked) [Chelate Complex 2] | 7.0 | 6.5 | 8.5 | 7.5
O=C(O)CN1CCN(CC(=O)O)CCN(CC(O)CN2CC(CO)(CO)C(O)C(CO)(CO)C2)CCN(CC(=O)O)CC1 (centres unmarked) [Chelate Complex 5] | 7.7 | 7.7 | 9.6 | 8.9
O=C([O-])CN1CCN(CC(=O)O)CCN(CC(=O)O)CCN(CC(O)CNC(CCc2ccccc2)P(=O)(O)[O+]=[Na])CC1 (centres unmarked) [Chelate Complex 6] | 8.3 | 8.2 | 13.8 | 11.9
CCOP(=O)(O)CN(Cc1ccccc1)CC(O)CN1CCN(CC(=O)O)CCN(CC(=O)O)CCN(CC(=O)O)CC1 (centres unmarked) [Chelate Complex 8] | 7.4 | 7.3 | 10.2 | 9.0
O=C(O)CN1CCN(CC(=O)O)CCN(CC(O)CN(CC(=O)O)C(CO)CO)CCN(CC(=O)O)CC1 (centres unmarked) [Chelate Complex 13] | 5.8 | 5.9 | 7.5 | 7.1
O=C(O)CN1CCN(CC(=O)O)CCN(CC(O)CN(CCOCCO)CCOCCO)CCN(CC(=O)O)CC1 (centres unmarked) [Chelate Complex 14] | 6.9 | 6.5 | 8.8 | 8.0
O=C(O)CN1CCN(CC(=O)O)CCN(CC(O)CN(CC(=O)O)C2CCCCC2)CCN(CC(=O)O)CC1 (centres unmarked) [Chelate Complex 19] | 6.5 | 6.1 | 9.1 | 8.05
CN(CC(O)CN1CCN(CC(=O)O)CCN(CC(=O)O)CCN(CC(=O)O)CC1)CC(O)C(O)C(O)C(O)CO (centres unmarked) [Chelate Complex 21] | 6.1 | 6.1 | 8.5 | 8.3
NCC(O)CN1CCN(CC(=O)O)CCN(CC(=O)O)CCN(CC(=O)O)CC1 (centres unmarked) [Comparative 1, reference compound] | 4.3 | 3.8 | 6.25 | 5.3
O=C(O)CN1CCN(CC(=O)O)CCN(CC(=O)O)CCN(CC(=O)O)CC1 [Doratem ®, Gd-DOTA, reference compound] | 3.6 | 3.2 | 4.5 | 3.6
CC(O)CN1CCN(CC(=O)O)CCN(CC(=O)O)CCN(CC(=O)O)CC1 (centres unmarked) [ProHance ®, Gd-HPDO3A, reference compound] | 3.5 | 3.1 | 4.9 | 4.15
